Laboratory results taken from ChEMBL document CHEMBL1146207, “Gypsophin: a novel alpha-glucosidase inhibitory cyclic peptide from the roots of Gypsophila oldhamiana” (Bioorg Med Chem Lett, 2007).

Target: Sucrase-isomaltase, intestinal (Homo sapiens, UniProt P14410)
Experiment: Inhibition of alpha-glucosidase by enzyme inhibition assay

Sucrase-isomaltase, intestinal, sequence (P14410 2-1007 limits assumed): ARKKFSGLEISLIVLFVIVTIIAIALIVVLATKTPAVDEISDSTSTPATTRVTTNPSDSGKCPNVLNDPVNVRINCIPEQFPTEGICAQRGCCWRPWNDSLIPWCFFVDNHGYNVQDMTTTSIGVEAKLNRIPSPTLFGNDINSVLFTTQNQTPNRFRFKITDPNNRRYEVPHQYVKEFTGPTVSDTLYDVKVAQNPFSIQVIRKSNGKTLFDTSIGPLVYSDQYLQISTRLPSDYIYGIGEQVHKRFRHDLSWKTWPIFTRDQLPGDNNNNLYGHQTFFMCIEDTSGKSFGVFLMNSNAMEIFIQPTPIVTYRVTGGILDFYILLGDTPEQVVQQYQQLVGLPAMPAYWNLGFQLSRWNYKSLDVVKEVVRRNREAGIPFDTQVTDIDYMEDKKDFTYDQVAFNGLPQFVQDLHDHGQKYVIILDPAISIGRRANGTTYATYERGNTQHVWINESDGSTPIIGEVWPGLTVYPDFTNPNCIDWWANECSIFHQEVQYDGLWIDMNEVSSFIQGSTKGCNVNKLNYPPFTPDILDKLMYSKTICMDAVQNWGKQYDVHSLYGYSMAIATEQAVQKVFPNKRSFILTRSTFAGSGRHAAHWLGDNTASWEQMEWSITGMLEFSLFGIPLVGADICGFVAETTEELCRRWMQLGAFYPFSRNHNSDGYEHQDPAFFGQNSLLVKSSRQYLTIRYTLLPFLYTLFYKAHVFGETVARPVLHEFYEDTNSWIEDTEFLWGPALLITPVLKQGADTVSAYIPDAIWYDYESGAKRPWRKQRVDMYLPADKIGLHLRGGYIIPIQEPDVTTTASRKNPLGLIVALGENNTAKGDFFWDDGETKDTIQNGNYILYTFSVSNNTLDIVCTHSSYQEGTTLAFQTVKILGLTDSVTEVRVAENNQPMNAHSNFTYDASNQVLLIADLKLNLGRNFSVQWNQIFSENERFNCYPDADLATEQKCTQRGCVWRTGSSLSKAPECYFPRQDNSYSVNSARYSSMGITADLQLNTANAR
Sucrase-isomaltase, intestinal, sequence (P14410 1008-1827 limits assumed): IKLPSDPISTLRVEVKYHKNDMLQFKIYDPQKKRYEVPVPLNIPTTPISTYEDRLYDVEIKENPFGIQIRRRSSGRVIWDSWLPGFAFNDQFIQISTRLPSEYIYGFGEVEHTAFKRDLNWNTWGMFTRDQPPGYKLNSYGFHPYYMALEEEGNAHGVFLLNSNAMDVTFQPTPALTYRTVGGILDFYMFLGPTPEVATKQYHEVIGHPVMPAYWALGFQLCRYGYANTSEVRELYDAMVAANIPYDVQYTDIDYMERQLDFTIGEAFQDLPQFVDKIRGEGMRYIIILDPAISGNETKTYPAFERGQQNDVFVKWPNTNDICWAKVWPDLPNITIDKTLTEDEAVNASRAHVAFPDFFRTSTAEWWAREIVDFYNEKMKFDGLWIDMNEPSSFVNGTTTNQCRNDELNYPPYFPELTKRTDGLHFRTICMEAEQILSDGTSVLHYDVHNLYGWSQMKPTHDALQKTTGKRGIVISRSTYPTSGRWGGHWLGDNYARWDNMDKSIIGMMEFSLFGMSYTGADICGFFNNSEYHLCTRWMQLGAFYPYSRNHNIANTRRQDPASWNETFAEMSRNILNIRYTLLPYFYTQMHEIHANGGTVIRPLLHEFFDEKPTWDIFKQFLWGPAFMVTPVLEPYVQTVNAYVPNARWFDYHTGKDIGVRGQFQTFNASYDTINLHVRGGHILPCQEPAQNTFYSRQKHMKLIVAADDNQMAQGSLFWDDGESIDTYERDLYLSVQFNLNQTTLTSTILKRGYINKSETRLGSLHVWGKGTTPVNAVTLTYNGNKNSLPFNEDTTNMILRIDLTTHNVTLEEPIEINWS

CC[C@H](C)[C@@H]1NC(=O)[C@H](Cc2ccccc2)N2C(=O)C[C@H](NC(=O)[C@H](Cc3ccccc3)NC(=O)CNC(=O)[C@@H]3CCCN3C(=O)[C@H](CC(C)C)NC1=O)C2=O [GYPSOPHIN]
IC50: 305 µM
